Experimental data as given in patent US20110230433A1, “COMPOSITIONS AND METHODS FOR TREATMENT OF CANCER” (UNIVERSITY OF WASHINGTON, priority 2010, published 2011).

How the values were obtained:
dG = settings: cited from earlier work
DNA polymerases = settings: copying past site specific residues by DNA polymerases in vitro; cited from earlier work
HIV = HIV in tissue culture; cited from earlier work
SW480 = assay: Viability after 48 hr culture with analog, crystal violet staining; type: cell-based, human; settings: SW480 (mismatch repair proficient)
Protocol: (§1) The concentration of each analog used in the serial transfer experiments can be 50% less than the highest dose at which there is no reduction in viability. Analogs that fail to be toxic can be used at 100 μM.
(§2) In Table 2, mismatch repair proficient and deficient cell lines were assayed for viability after growing for 48 hr with the indicated analogs in nM to mM concentrations.

HCT116 = assay: as above; type: cell-based, human; settings: HCT116 (mismatch repair deficient)
Protocol: as §1, §2

[1] = test system: human cells deficient in O^6-methyl transferase; settings: compared to correct base-pairing with cytidine; cited from earlier work
DNA = settings: cited from earlier work
E. coli = E. coli lacking repair of 8-OH-dG; cited from earlier work

SMILES: COc1nc(=O)n([C@H]2C[C@H](O)[C@@H](CO)O2)cc1C [O^4-methyl-2′-deoxythymidine]
- frequency of mispairing with dG (dG): approximately 25%
- increase in mis-incorporation (DNA polymerases): 20%
- induction of lethal mutagenesis (HIV): induce lethal mutagenesis of HIV
- Highest dose without decreased viability (SW480): >3.3 mM
- Highest dose without decreased viability (HCT116): >3.3 mM

SMILES: NC1=NC(=O)N([C@H]2C[C@H](O)[C@@H](CO)O2)CN1 [KP-1212, reference compound]
- Highest dose without decreased viability (SW480): 3.3 mM
- Highest dose without decreased viability (HCT116): 3.3 mM

SMILES: COc1nc(N)nc2c1ncn2[C@H]1C[C@H](O)[C@@H](CO)O1 [O^6-methyl dG]
- frequency of base-pairing with thymidine [1]: 19%

SMILES: O=c1[nH]c2nccn2c2c1ncn2C1C[C@H](O)[C@@H](CO)O1 (some centres unmarked) [Etheno-dG, N^2,3-etheno dG]
- frequency of non-complementary base-pairs (DNA): approximately 10%

SMILES: CCN(N=O)C(N)=O [ENU, ethylnitrosourea, reference compound]
- Highest dose without decreased viability (SW480): 0.6 mg/mL
- Highest dose without decreased viability (HCT116): 1.1 mg/mL

SMILES: Nc1ncc2ncn([C@H]3C[C@H](O)[C@@H](CO)O3)c2n1 [2′-deoxyaminopurine, 2-Amino-9-(β-D-2′-deoxyribfuranosyl)purine]
- Highest dose without decreased viability (SW480): >3.3 mM
- Highest dose without decreased viability (HCT116): >3.3 mM

SMILES: O=c1n([C@H]2C[C@H](O)[C@@H](CO)O2)ccc2nccn12 [Etheno-dC, N^3,4-etheno dC]
- frequency of non-complementary base-pairs (DNA): approximately 10%

SMILES: CCOc1nc(=O)n([C@H]2C[C@H](O)[C@@H](CO)O2)cc1C [O^4-ethyl-2′-deoxythymidine]
- frequency of mispairing with dG (dG): approximately 25%
- Highest dose without decreased viability (SW480): >3.3 mM
- Highest dose without decreased viability (HCT116): 0.33 mM

SMILES: CCOc1nc(N)nc2c1ncn2[C@H]1C[C@H](O)[C@@H](CO)O1 [O^6-ethyl dG]
- frequency of base-pairing with thymidine [1]: 11%

SMILES: Nc1ncc2[nH]cnc2n1 [2′-aminopurine, 2-Aminopurine]
- Highest dose without decreased viability (SW480): 0.00033 mM
- Highest dose without decreased viability (HCT116): 0.00033 mM

SMILES: Nc1nc(=O)n([C@H]2C[C@H](O)[C@@H](CO)O2)cc1O [5-hydroxy-2′-deoxycytidine]
- Highest dose without decreased viability (SW480): 0.3 mM
- Highest dose without decreased viability (HCT116): 0.03 mM

SMILES: OC[C@H]1O[C@@H](n2cnc3c(O)ncnc32)C[C@@H]1O [2′-deoxyinosine]
- Highest dose without decreased viability (SW480): >3.3 mM
- Highest dose without decreased viability (HCT116): >3.3 mM

SMILES: OC[C@H]1O[C@@H](n2cnc3c2ncn2ccnc32)C[C@@H]1O [Etheno-dA, 1,N6-etheno dA]
- frequency of non-complementary base-pairs (DNA): approximately 10%

SMILES: Nc1nc2c(nc(O)n2[C@H]2C[C@H](O)[C@@H](CO)O2)c(=O)[nH]1 [8-OH-dG, 8-hydroxy deoxyguanosine]
- increase in mutagenesis (E. coli): 1000 fold
